Positions count from the first letter of the chain named. “Also recorded” adds a separate entry of the source.
How the values were obtained:
[1] = target: T1, WT GLUT3 (Homo sapiens, UniProt P11169, N43T); assay: Microscale thermophoresis (MST) binding assay; design: Figure 1e middle: MST binding curve, Mean / Figure 1e right: MST binding curve, Mean / Figure 2c: MST binding curve, Mean: unit not given here; conditions: for Figure 2c: MST binding curve, Mean: GLUT3, log[SA47]
T1 construct: His10 (N); made in house; host or cells: Sf9 insect cells (baculovirus)
T1 sequence (P11169 1-496 N43T): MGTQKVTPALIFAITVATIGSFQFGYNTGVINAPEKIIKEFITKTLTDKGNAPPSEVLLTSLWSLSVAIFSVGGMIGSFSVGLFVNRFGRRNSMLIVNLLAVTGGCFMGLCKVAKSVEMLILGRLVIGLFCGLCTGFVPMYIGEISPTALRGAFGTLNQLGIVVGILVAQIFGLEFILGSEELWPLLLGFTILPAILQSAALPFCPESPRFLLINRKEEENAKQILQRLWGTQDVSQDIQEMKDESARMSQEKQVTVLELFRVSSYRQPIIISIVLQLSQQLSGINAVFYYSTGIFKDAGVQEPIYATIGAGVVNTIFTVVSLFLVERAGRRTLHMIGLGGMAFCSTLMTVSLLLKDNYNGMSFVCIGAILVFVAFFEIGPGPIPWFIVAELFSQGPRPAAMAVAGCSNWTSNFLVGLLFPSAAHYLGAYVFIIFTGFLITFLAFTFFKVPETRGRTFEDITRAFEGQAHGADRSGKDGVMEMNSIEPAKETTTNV
Description: (§1) All mutants were generated by standard PCR-based strategy.
(§2) Inhibitors with serial dilutions were mixed with indicated protein. […] MST analyses were conducted on a Monolith NT. […] The MST data was analyzed by Monolith NT.115.

[2] = Water solubility; assay type: physicochemical; conditions: can only be applied up to 160 μM
[3] = target: T2, GLUT3exo (GLUT3 S64W and I305W) (Homo sapiens, UniProt P11169, I305W/N43T/S64W); assay: biochemical; assay type: binding; conditions: for Figure 2c: MST binding curve, Mean: GLUT3 dTrp mutant, log[SA47]
T2 construct: His10 (N); made in house; host or cells: Sf9 insect cells (baculovirus)
Description: Following the same principle for the engineering of XylE-WW, we introduced two Trp substitutions, S64W and I305W, on the extracellular segments of TM2 and TM8 of GLUT3, respectively. This variant will be referred to as GLUT3exo hereafter (Fig. 1a). The two bulky substituents were expected to trap GLUT3 in an outward-facing conformation.
as §1, §2

[4] = target: T3, GLUT3 T28A (Homo sapiens, UniProt P11169, N43T/T28A); assay: Binding of SA47 to GLUT3 variant; conditions: single point mutation T28A
T3 construct: His10 (N); made in house; host or cells: Sf9 insect cells (baculovirus)
T3 sequence (P11169 1-496 T28A/N43T): T1 sequence (P11169 1-496 N43T) with T28A

[5] = target: T4, GLUT1 (Homo sapiens, UniProt P11166, N45T); assay: Microscale thermophoresis (MST) binding assay; conditions: for Figure 2c: MST binding curve, Mean: log[SA47]
T4 construct: made in house
T4 sequence (P11166 1-492 N45T): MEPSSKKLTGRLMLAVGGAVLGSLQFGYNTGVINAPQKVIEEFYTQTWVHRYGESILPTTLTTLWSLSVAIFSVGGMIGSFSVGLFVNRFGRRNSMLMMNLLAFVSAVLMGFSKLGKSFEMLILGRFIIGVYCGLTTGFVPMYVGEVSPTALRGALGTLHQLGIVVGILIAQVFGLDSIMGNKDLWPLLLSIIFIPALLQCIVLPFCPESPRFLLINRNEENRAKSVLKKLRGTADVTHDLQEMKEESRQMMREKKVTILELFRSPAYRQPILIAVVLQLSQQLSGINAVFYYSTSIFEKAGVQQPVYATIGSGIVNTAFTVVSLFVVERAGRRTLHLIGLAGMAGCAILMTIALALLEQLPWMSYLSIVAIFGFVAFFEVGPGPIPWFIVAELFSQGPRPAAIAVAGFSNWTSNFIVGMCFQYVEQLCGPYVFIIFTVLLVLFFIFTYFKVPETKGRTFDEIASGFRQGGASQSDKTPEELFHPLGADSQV
Description: as §1, §2

[6] = target: T5, GLUT3 S71A (Homo sapiens, UniProt P11169, N43T/S71A); assay: biochemical; assay type: binding
T5 construct: His10 (N); made in house; host or cells: Sf9 insect cells (baculovirus)
Description: as §1, §2

T2 sequence (P11169 whole entry N43T/S64W/I305W): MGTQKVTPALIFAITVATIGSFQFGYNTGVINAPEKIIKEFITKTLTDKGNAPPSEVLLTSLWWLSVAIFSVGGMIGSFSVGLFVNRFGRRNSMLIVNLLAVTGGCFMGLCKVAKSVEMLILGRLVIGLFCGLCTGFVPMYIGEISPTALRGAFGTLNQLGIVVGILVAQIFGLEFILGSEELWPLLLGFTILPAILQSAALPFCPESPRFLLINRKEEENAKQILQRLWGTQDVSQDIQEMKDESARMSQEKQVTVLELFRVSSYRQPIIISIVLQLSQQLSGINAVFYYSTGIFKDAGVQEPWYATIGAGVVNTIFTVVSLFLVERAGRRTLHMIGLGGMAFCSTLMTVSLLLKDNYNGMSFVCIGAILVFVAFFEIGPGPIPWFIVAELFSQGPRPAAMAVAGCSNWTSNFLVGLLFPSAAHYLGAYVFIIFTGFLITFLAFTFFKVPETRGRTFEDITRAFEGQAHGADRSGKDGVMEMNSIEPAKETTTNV
T5 sequence (P11169 whole entry N43T/S71A): as the sequence (P11169 whole entry N43T/S64W/I305W) above, with W64S, S71A, W305I counted along it

With `COC(=O)CCNCc1ccccc1-n1ncc2c(N3CCN(c4cc(F)ccc4OC)CC3)ncnc21` [SA47] the “Figure 2c: MST binding curve, Mean” value ([1]; M -4.30103) was 93.1623, the “Figure 2c: MST binding curve, Mean” value ([1]; M -4.60206) was 97.5688 and the “Figure 2c: MST binding curve, Mean” value ([1]; M -4.90309) was 103.147. For the same compound, the “Figure 2c: MST binding curve, Mean” value ([1]; M -5.20412) was 93.0436, the “Figure 2c: MST binding curve, Mean” value ([1]; M -5.50515) was 92.2406 and the “Figure 2c: MST binding curve, Mean” value ([1]; M -5.80618) was 84.0843. For the same compound, the “Figure 2c: MST binding curve, Mean” value ([1]; M -6.10721) was 63.9676, the “Figure 2c: MST binding curve, Mean” value ([1]; M -6.40824) was 36.3211 and the “Figure 2c: MST binding curve, Mean” value ([1]; M -7.0103) was 13.9692. The “Figure 2c: MST binding curve, Mean” value ([1]; M -7.31133) was 8.298, the “Figure 2c: MST binding curve, Mean” value ([1]; M -7.61236) was 1.1474 and the “Figure 2c: MST binding curve, Mean” value ([1]; M -7.91339) was 0.7084. For the same compound, the “Figure 2c: MST binding curve, Mean” value ([1]; M -8.21442) was 2.7164, the “Figure 2c: MST binding curve, Mean” value ([1]; M -8.51545) was 2.4811 and the “Figure 2c: MST binding curve, Mean” value ([1]; M -8.81648) was 1.1039. The Kd ([1]; WT GLUT3) was 317 ± 47.2 nM, the “Water solubility” value [2] was “limited” and the Kd [3] was 314 ± 80.7 nM. For the same compound, the “Figure 2c: MST binding curve, Mean” value ([3]; M -4.60206) was 107.845, the “Figure 2c: MST binding curve, Mean” value ([3]; M -4.90309) was 92.9206 and the “Figure 2c: MST binding curve, Mean” value ([3]; M -5.20412) was 96.8426. For the same compound, the “Figure 2c: MST binding curve, Mean” value ([3]; M -5.50515) was 85.0858, the “Figure 2c: MST binding curve, Mean” value ([3]; M -5.80618) was 74.1558 and the “Figure 2c: MST binding curve, Mean” value ([3]; M -6.10721) was 60.9811. For the same compound, the “Figure 2c: MST binding curve, Mean” value ([3]; M -6.40824) was 46.911, the “Figure 2c: MST binding curve, Mean” value ([3]; M -6.70927) was 34.266 and the “Figure 2c: MST binding curve, Mean” value ([3]; M -7.31133) was -0.7525. For the same compound, the “Figure 2c: MST binding curve, Mean” value ([3]; M -7.61236) was 4.6276, the “Figure 2c: MST binding curve, Mean” value ([3]; M -7.91339) was 1.8858 and the “Figure 2c: MST binding curve, Mean” value ([3]; M -8.21442) was 1.3955. For the same compound, the “Figure 2c: MST binding curve, Mean” value ([3]; M -8.51545) was 4.478, the “Figure 2c: MST binding curve, Mean” value ([3]; M -8.81648) was -6.1144 and the “SA47 binding to GLUT3 T28A” value [4] was “abolished the binding”. The Kd [5] was 310 ± 58.2 nM, the “Figure 2c: MST binding curve, Mean” value ([5]; M -4.90309) was 102.821 and the “Figure 2c: MST binding curve, Mean” value ([5]; M -5.20412) was 94.0406. For the same compound, the “Figure 2c: MST binding curve, Mean” value ([5]; M -5.50515) was 85.0371, the “Figure 2c: MST binding curve, Mean” value ([5]; M -5.80618) was 78.9623 and the “Figure 2c: MST binding curve, Mean” value ([5]; M -6.10721) was 63.517. For the same compound, the “Figure 2c: MST binding curve, Mean” value ([5]; M -6.40824) was 44.2639, the “Figure 2c: MST binding curve, Mean” value ([5]; M -6.70927) was 30.0958 and the “Figure 2c: MST binding curve, Mean” value ([5]; M -7.0103) was 11.0052. For the same compound, the “Figure 2c: MST binding curve, Mean” value ([5]; M -7.31133) was 3.8567, the “Figure 2c: MST binding curve, Mean” value ([5]; M -7.61236) was 3.527 and the “Figure 2c: MST binding curve, Mean” value ([5]; M -7.91339) was -1.6488. For the same compound, the “Figure 2c: MST binding curve, Mean” value ([5]; M -8.21442) was -3.8284, the “Figure 2c: MST binding curve, Mean” value ([5]; M -8.51545) was 7.0621 and the “Figure 2c: MST binding curve, Mean” value ([5]; M -8.81648) was 2.3819. The Kd [6] was 1600 ± 400 nM and the “Affinity of SA47 with GLUT3 S71A” value ([6]; S71A versus WT) was “decreased the affinity; also recorded: reduced affinity”.

From paper PMC9098912, “Molecular basis for inhibiting human glucose transporters by exofacial inhibitors” (Nature Communications, 2022)
